The test system of one data set is Spodoptera frugiperda. Put plainly: Spodoptera frugiperda - spray test (SPODFR). The following applies: application rate of 500 g/ha; after 7 days; armyworm caterpillars on sprayed maize leaf discs; 100% = all caterpillars killed. Type of data set: in vivo. As to the method: Spodoptera frugiperda—Spray Test (SPODFR)
(§1) Solvent: 78.0 parts by weight of acetone • • 1.5 parts by weight of dimethylformamide
(§2) Emulsifier: alkylaryl polyglycol ether
(§3) To produce an appropriate active ingredient formulation, 1 part by weight of active ingredient is dissolved using the specified parts by weight of solvent and made up with water containing an emulsifier concentration of 1000 ppm until the desired concentration is attained. To produce further test concentrations, the preparation is diluted with emulsifier-containing water.
Leaf discs of maize (Zea mays) are sprayed with an active ingredient formulation of the desired concentration and, after drying, populated with caterpillars of the armyworm (Spodopterafrugiperda).
After 7 days, the efficacy in % is determined. 100% means that all the caterpillars have been killed; 0% means that no caterpillars have been killed.
For `Cc1cc(N(C(=O)c2cccnc2)C(=O)c2cccc(Cl)c2)nn1C(=O)c1cccc(Cl)c1` [Compound I-1-22], the efficacy in % is on record as 83%.
With `O=C(Nc1ccn(-c2ncccc2Cl)n1)c1cccnc1` [Compound I-1-48], the efficacy in % was determined as 100%.
Still for that read-out and setting: the same measure for `CCCC(=O)n1nc(NC(=O)c2cccnc2)cc1C` [Compound I-1-131]: 100%; for `Cc1cc(NC(=O)c2cccnc2)nn1C(=O)C(C)C` [Compound I-1-130]: 100%.

Test system in another data set: not listed separately
As to the kind of experiment: log P determination by LC-MS in the acidic range. Type of data set: physicochemical. As to conditions: LC-MS in the acidic range. The source says:
The LC-MS determination in the acidic range is effected at pH 2.7 using 0.1% aqueous formic acid and acetonitrile (contains 0.1% formic acid) as eluents, linear gradient from 10% acetonitrile to 95% acetonitrile. Alternatively, the determination is effected in the acidic range at pH 2.3 using 0.1% aqueous phosphoric acid and acetonitrile as eluents; linear gradient from 10% acetonitrile to 95% acetonitrile.
Turning to `CCC(C)n1nc(NC(=O)c2cccnc2)cc1C` (stereo not drawn) [Compound I-1-205], the “log P (acid)” value came out at 1.59.
The same measure, in the same setting: the same measure for `Cc1cc(N(C)C(=O)c2cccnc2)nn1Cc1ncccn1` [Compound I-1-346]: 0.63; for `Cc1nc(Cn2nc(NC(=O)c3cccnc3)cc2C)no1` [Compound I-1-282]: 0.9; for `Cc1cc(N(C(=O)c2cccnc2)C(=O)c2cccc(Cl)c2)nn1C(=O)c1cccc(Cl)c1` [Compound I-1-22]: 3.98.
Turning to `O=C(Nc1ccn(-c2ncccc2Cl)n1)c1cccnc1` [Compound I-1-48], the “log P (acid)” value is reported as 1.25.
`CCCC(=O)n1nc(NC(=O)c2cccnc2)cc1C` [Compound I-1-131]: the “log P (acid)” value is on record as 1.94.
As for `CCC(CC)n1nc(NC(=O)c2cccnc2)cc1C` [Compound I-1-210], the “log P (acid)” value amounted to 1.92.
Still for that read-out and setting: next, `Cc1cc(NC(=O)c2cccnc2)nn1C(=O)C(C)C` [Compound I-1-130]: 1.95.
Same read-out and setting: the same measure for `C#CCN(C(=O)c1cccnc1)c1cc(C)n(Cc2ncccn2)n1` [Compound I-1-264]: 0.98; for `CCOC(=O)CN(C)C(=O)Cn1nc(NC(=O)c2cncc(F)c2)cc1C` [Compound I-1-61]: 1.35.
On the same count and under the same terms, the same measure for `Cc1cc(NC(=O)c2cccnc2)nn1CSc1ncccn1` [Compound I-1-234]: 1.25; for `Cc1cc(NC(=O)c2cccnc2)nn1Cc1cscn1` [Compound I-1-295]: 0.95; for `Cc1cc(NC(=O)c2cccnc2)nn1CC1CCCO1` (stereo not drawn) [Compound I-1-176]: 1.06.

The data set is the same for the next values; noted with them: Table 2, compounds of the formula (I-2); acidic range pH 2.7 or pH 2.3.
With `COc1ccc([N+](=O)[O-])cc1Cn1cnc(NC(=O)c2cccnc2)n1` [Compound I-2-4], the “log P (acid)” value is given as 1.13.

The data set is the same for the next values; noted with them: values given in the synthesis examples and NMR lists.
For `CCOC(=O)CN(C)C(=O)Cn1nc(NC(=O)c2cncc(F)c2)cc1C` [Compound I-1-61], the “HPLC-MS: log P” value is reported as “Compound No. I-1-61: HPLC-MS: logP = 1.35; mass (m/z): 378.1 (M + H)^+; 1H NMR (CD3CN) 1.21-1.28 (m,”.

For another data set, the system named is Myzus persicae. Put plainly: Myzus persicae - spray test. Type of data set: in vivo. As to conditions: application rate of 500 g/ha; after 6 days; sprayed Chinese cabbage leaf discs infested by all stages; 100% = all aphids killed. Summed up: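 Chinese cabbage leaf discs infested with all stages of green peach aphid sprayed with compound in acetone/DMF formulation with alkylaryl polyglycol ether emulsifier, diluted in emulsifier-containing water. Efficacy (% aphids killed) assessed after 6 days.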
`CCC(C)n1nc(NC(=O)c2cccnc2)cc1C` (stereo not drawn) [Compound I-1-205] showed an efficacy in % of 100%.
The molecule `Cc1cc(N(C)C(=O)c2cccnc2)nn1Cc1ncccn1` [Compound I-1-346] showed an efficacy in % of 100%.
`Cc1nc(Cn2nc(NC(=O)c3cccnc3)cc2C)no1` [Compound I-1-282]: the efficacy in % stood at 90%.
The molecule `Cc1cc(N(C(=O)c2cccnc2)C(=O)c2cccc(Cl)c2)nn1C(=O)c1cccc(Cl)c1` [Compound I-1-22] came in with an efficacy in % of 100%.
The molecule `CCCC(=O)n1nc(NC(=O)c2cccnc2)cc1C` [Compound I-1-131] registered an efficacy in % of 90%.
With `Cc1cc(NC(=O)c2cccnc2)nn1C(=O)C(C)C` [Compound I-1-130], the efficacy in % is recorded as 90%.
The molecule `C#CCN(C(=O)c1cccnc1)c1cc(C)n(Cc2ncccn2)n1` [Compound I-1-264] returned an efficacy in % of 90%.
Still for that read-out and setting: the same measure for `CCOC(=O)CN(C)C(=O)Cn1nc(NC(=O)c2cncc(F)c2)cc1C` [Compound I-1-61]: 80%.
On the same count and under the same terms, the same measure for `Cc1cc(NC(=O)c2cccnc2)nn1CSc1ncccn1` [Compound I-1-234]: 90%; for `COc1ccc([N+](=O)[O-])cc1Cn1cnc(NC(=O)c2cccnc2)n1` [Compound I-2-4]: 90%.
On the same count and under the same terms, next, `Cc1cc(NC(=O)c2cccnc2)nn1Cc1cscn1` [Compound I-1-295]: 100%.
Take `Cc1cc(NC(=O)c2cccnc2)nn1CC1CCCO1` (stereo not drawn) [Compound I-1-176]: the efficacy in % was found to be 100%.

The test system of a further data set is Phaedon cochleariae. Put plainly: Phaedon cochleariae - spray test (PHAECO). The data set is classed as in vivo. As to conditions: application rate of 500 g/ha; after 7 days; larvae of the mustard beetle on sprayed Chinese cabbage leaf discs; 100% = all larvae killed. As to the method:
Phaedon cochleariae—Spray Test (PHAECO)
as §1, §2, §3
Discs of Chinese cabbage leaves (Brassica pekinensis) are sprayed with an active ingredient formulation of the desired concentration and, after drying, populated with larvae of the mustard beetle (Phaedon cochleariae).
After 7 days, the efficacy in % is determined. 100% means that all the beetle larvae have been killed; 0% means that no beetle larvae have been killed.
`Cc1cc(N(C)C(=O)c2cccnc2)nn1Cc1ncccn1` [Compound I-1-346] displayed an efficacy in % of 100%.
The same measure, in the same setting: next, `Cc1cc(N(C(=O)c2cccnc2)C(=O)c2cccc(Cl)c2)nn1C(=O)c1cccc(Cl)c1` [Compound I-1-22]: 83%; `O=C(Nc1ccn(-c2ncccc2Cl)n1)c1cccnc1` [Compound I-1-48]: 100%; `CCCC(=O)n1nc(NC(=O)c2cccnc2)cc1C` [Compound I-1-131]: 100%.
Still for that read-out and setting: next, `Cc1cc(NC(=O)c2cccnc2)nn1C(=O)C(C)C` [Compound I-1-130]: 100%.

The subject of another data set is Myzus persicae. Put plainly: Myzus persicae - sachet test. Type of data set: in vivo. As to conditions: application rate of 6 ppm in nutrient medium; 100% = all animals killed. The method, boiled down: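 Green peach aphids feed through a sealed sachet on nutrient medium containing the water-diluted formulation (solvents: 2% N-methylpyrrolidone, 2% diacetone alcohol). Percent mortality read after the chosen time; 100% means all animals killed.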
`Cc1cc(N(C)C(=O)c2cccnc2)nn1Cc1ncccn1` [Compound I-1-346]: the “efficacy (kill in %)” value was 100%.
As to `Cc1nc(Cn2nc(NC(=O)c3cccnc3)cc2C)no1` [Compound I-1-282], the “efficacy (kill in %)” value came to 100%.
The same measure, in the same setting: the same measure for `Cc1cc(N(C(=O)c2cccnc2)C(=O)c2cccc(Cl)c2)nn1C(=O)c1cccc(Cl)c1` [Compound I-1-22]: 100%.
Take `CCCC(=O)n1nc(NC(=O)c2cccnc2)cc1C` [Compound I-1-131]: the “efficacy (kill in %)” value stood at 100%.
Still for that read-out and setting: the same measure for `Cc1cc(NC(=O)c2cccnc2)nn1C(=O)C(C)C` [Compound I-1-130]: 100%; for `C#CCN(C(=O)c1cccnc1)c1cc(C)n(Cc2ncccn2)n1` [Compound I-1-264]: 100%.
Same read-out and setting: the same measure for `Cc1cc(NC(=O)c2cccnc2)nn1CSc1ncccn1` [Compound I-1-234]: 100%.
Take `Cc1cc(NC(=O)c2cccnc2)nn1Cc1cscn1` [Compound I-1-295]: the “efficacy (kill in %)” value is on record as 100%.
As to `Cc1cc(NC(=O)c2cccnc2)nn1CC1CCCO1` (stereo not drawn) [Compound I-1-176], the “efficacy (kill in %)” value is reported as 80%.

Staying with this data set, now noted: application rate of 30 ppm in nutrient medium; 100% = all animals killed.
Turning to `CCC(C)n1nc(NC(=O)c2cccnc2)cc1C` (stereo not drawn) [Compound I-1-205], the “efficacy (kill in %)” value is on record as 100%.
As for `Cc1cc(N(C)C(=O)c2cccnc2)nn1Cc1ncccn1` [Compound I-1-346], the “efficacy (kill in %)” value is 100%.
Consider `Cc1nc(Cn2nc(NC(=O)c3cccnc3)cc2C)no1` [Compound I-1-282], for which the “efficacy (kill in %)” value amounted to 100%.
Still for that read-out and setting: the same measure for `Cc1cc(N(C(=O)c2cccnc2)C(=O)c2cccc(Cl)c2)nn1C(=O)c1cccc(Cl)c1` [Compound I-1-22]: 100%; for `O=C(Nc1ccn(-c2ncccc2Cl)n1)c1cccnc1` [Compound I-1-48]: 100%; for `CCCC(=O)n1nc(NC(=O)c2cccnc2)cc1C` [Compound I-1-131]: 100%.
In the case of `CCC(CC)n1nc(NC(=O)c2cccnc2)cc1C` [Compound I-1-210], the “efficacy (kill in %)” value is reported as 80%.
On to `Cc1cc(NC(=O)c2cccnc2)nn1C(=O)C(C)C` [Compound I-1-130], for which the “efficacy (kill in %)” value came out at 100%.
On the same count and under the same terms, the same measure for `C#CCN(C(=O)c1cccnc1)c1cc(C)n(Cc2ncccn2)n1` [Compound I-1-264]: 100%; for `CCOC(=O)CN(C)C(=O)Cn1nc(NC(=O)c2cncc(F)c2)cc1C` [Compound I-1-61]: 100%.
With `Cc1cc(NC(=O)c2cccnc2)nn1CSc1ncccn1` [Compound I-1-234], the “efficacy (kill in %)” value is 100%.
As for `COc1ccc([N+](=O)[O-])cc1Cn1cnc(NC(=O)c2cccnc2)n1` [Compound I-2-4], the “efficacy (kill in %)” value came to 100%.
`Cc1cc(NC(=O)c2cccnc2)nn1Cc1cscn1` [Compound I-1-295]: the “efficacy (kill in %)” value is recorded as 100%.
As to `Cc1cc(NC(=O)c2cccnc2)nn1CC1CCCO1` (stereo not drawn) [Compound I-1-176], the “efficacy (kill in %)” value amounted to 80%.

A further data set relates to Tetranychus urticae. As to the kind of experiment: Tetranychus urticae - spray test, OP-resistant (TETRUR). Type of data set: in vivo. The following applies: application rate of 500 g/ha; after 6 days; bean leaf discs infested by all stages; 100% = all spider mites killed. The procedure:
Tetranychus urticae—spray test, OP-resistant (TETRUR)
as §1, §2, §3
Discs of bean leaves (Phaseolus vulgaris) infested by all stages of the greenhouse red spider mite (Tetranychus urticae) are sprayed with an active ingredient formulation of the desired concentration.
After 6 days, the efficacy in % is determined. 100% means that all the spider mites have been killed; 0% means that no spider mites have been killed.
With `CCC(C)n1nc(NC(=O)c2cccnc2)cc1C` (stereo not drawn) [Compound I-1-205], the efficacy in % came to 90%.
The same measure, in the same setting: the same measure for `Cc1nc(Cn2nc(NC(=O)c3cccnc3)cc2C)no1` [Compound I-1-282]: 90%; for `CCCC(=O)n1nc(NC(=O)c2cccnc2)cc1C` [Compound I-1-131]: 90%.
`CCC(CC)n1nc(NC(=O)c2cccnc2)cc1C` [Compound I-1-210] showed an efficacy in % of 90%.

The values above are taken from US20160106102A1, “KNOWN AND NEW HETEROCYCLIC COMPOUNDS AS PEST CONTROL AGENTS” (BAYER CROPSCIENCE AKTIENGESELLSCHAFT, priority 2013, published 2016).
